From ChEMBL document CHEMBL1131344, “The synthesis of novel matrix metalloproteinase inhibitors employing the Ireland-Claisen rearrangement” (Bioorg Med Chem Lett, 1998) come the findings set out here.

Data set [1] addresses T1, Interstitial collagenase (Homo sapiens) (UniProt P03956).
T1 sequence (whole entry): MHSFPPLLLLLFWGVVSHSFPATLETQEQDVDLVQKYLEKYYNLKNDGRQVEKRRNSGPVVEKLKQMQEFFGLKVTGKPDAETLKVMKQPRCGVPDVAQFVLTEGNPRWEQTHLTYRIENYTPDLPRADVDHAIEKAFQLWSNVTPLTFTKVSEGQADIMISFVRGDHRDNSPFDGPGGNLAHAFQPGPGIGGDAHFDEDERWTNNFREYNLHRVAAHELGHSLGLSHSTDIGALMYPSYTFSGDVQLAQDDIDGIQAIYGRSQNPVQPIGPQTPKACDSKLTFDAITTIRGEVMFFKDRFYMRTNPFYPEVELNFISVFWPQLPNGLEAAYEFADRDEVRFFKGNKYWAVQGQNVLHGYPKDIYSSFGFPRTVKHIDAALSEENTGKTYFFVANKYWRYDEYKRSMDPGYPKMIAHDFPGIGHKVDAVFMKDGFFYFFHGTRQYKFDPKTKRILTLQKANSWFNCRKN
The data set can be described thus: Inhibition of matrix metalloprotease-1 (HFC).

For data set [2], the species on record is Rattus norvegicus. The data set can be described thus: Compound was tested for area under curve in rat. Format: ADME, organism-based. The arrangement: concentration or dose not given beside the values. The following applies: in vivo.
In data set [3] the target is 72 kDa type IV collagenase (Homo sapiens) (UniProt P08253). The data set can be described thus: Inhibition of matrix metalloprotease-2 (Gel.A).
The target in data set [4] is Stromelysin-1 (Homo sapiens) (UniProt P08254). Briefly: Inhibition of matrix metalloprotease-3 (Stromelysin-1).
Data set [5] in a line: Maximum concentration value was evaluated for high sustained blood levels in rat after 30 min of administration. The format is ADME, organism-based.
Data set [6] has as its target T2, Matrilysin (Homo sapiens) (UniProt P09237).
T2 sequence (whole entry): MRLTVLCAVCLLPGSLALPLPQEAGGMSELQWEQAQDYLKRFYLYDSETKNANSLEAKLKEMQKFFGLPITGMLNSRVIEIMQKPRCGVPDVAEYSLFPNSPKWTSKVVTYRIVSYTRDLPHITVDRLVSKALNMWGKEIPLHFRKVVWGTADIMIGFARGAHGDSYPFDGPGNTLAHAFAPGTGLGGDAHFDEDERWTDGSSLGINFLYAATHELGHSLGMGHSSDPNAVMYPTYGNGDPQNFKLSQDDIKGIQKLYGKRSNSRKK
The data set can be described thus: Inhibition of matrix metalloprotease-7 (Matrilysin).

A short description of data set [7]: Maximum concentration value was evaluated for high sustained blood levels in rat after 2 hr of administration. The format is ADME, organism-based.
Data set [8] deals with Rattus norvegicus. Briefly: Compound was tested for inhibition of Tumor Necrosis Factor production in rat at a peroral dose of 5 mg/kg. Format: functional. The following applies: route oral.
Data set [9] relates to Rattus norvegicus. Briefly: Compound was tested for inhibition of Tumor Necrosis Factor production in rat at a peroral dose of 2.5 mg/kg. Format: functional. The following applies: route oral.
Data set [10] deals with Rattus norvegicus. Briefly: Compound was tested for inhibition of Tumor Necrosis Factor production in rat at a peroral dose of 10 mg/kg. Format: functional. The following applies: route oral.
A short description of data set [11]: Maximum concentration value was evaluated for high sustained blood levels in rat after 1 hr of administration. Format: ADME, organism-based.

SMILES strings stand for the structures.

Chain of 72 kDa type IV collagenase (Homo sapiens) (P08253 110-660 limits assumed): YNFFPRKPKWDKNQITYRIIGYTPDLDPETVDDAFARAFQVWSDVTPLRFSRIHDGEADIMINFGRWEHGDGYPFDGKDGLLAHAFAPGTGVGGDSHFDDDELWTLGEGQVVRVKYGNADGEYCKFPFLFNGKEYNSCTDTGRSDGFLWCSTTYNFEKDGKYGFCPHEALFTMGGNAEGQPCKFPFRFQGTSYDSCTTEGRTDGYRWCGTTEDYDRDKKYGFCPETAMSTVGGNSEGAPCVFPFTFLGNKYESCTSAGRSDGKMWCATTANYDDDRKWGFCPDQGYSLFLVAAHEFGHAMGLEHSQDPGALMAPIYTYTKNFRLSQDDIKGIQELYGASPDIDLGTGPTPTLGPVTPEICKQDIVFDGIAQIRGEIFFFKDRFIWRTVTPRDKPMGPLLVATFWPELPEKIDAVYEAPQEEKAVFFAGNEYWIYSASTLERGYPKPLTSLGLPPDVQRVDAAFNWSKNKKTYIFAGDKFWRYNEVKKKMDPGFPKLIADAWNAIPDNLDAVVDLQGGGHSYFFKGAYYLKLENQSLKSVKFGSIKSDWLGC
Chain of Stromelysin-1 (Homo sapiens) (P08254 100-477 limits assumed): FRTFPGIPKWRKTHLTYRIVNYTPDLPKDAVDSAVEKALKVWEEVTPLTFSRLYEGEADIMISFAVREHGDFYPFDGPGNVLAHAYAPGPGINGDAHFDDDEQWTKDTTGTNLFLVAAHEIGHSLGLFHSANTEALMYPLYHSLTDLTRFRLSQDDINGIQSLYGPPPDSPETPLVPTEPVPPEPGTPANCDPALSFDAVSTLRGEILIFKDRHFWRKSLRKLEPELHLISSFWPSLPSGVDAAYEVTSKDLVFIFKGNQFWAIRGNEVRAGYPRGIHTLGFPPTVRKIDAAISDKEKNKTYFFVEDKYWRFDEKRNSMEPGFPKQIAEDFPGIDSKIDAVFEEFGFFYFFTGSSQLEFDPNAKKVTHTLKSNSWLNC

With `CNC(=O)[C@@H](NC(=O)[C@H](CC(C)C)[C@@H](C(=O)NO)C(C)C)C(C)(C)C`, the Activity in data set [1] came to 1 nM; in data set [3] it was 1 nM; in [4], 40 nM; in data set [6], 5 nM. Further, the AUC in the data set listed under Rattus norvegicus [2] was determined as 0.895 µg·h/mL. The compound further displayed a Cmax in data set [5] of 0.376 µg/mL.
For the compound `CNC(=O)[C@@H](NC(=O)C(CC(C)C)C(C(=O)NO)C1CCC(C(C)(C)C)CC1)C(C)(C)C` (single isomer, unassigned), the Activity in [1] is 40 nM; in data set [3] it was 30 nM; in data set [4] it was 100 nM; in data set [6], 50 nM.
The corresponding values for `CC(C)CC(C(=O)N[C@H](C(=O)Nc1ccccn1)C(C)(C)C)C(C(=O)NO)C1CCCC1` (single isomer, unassigned; 12j) [listing 1 of 2 here] are 3 nM, 30 nM, 20 nM and 3 nM.
As to `CNC(=O)[C@@H](NC(=O)C(CC(C)C)C(C(=O)NO)C1CC1)C(C)(C)C` (single isomer, unassigned), the Activity in data set [1] worked out at 20 nM; in [3], 100 nM; in data set [4], 300 nM; in data set [6] it was 200 nM. In the data set listed under Rattus norvegicus [2], the exposure (AUC) amounted to 1.02 µg·h/mL. Further, the Cmax in data set [5] worked out at 0.106 µg/mL.
In data set [7], `CC(C)CC(C(=O)N[C@H](C(=O)Nc1ccccn1)C(C)(C)C)C(C(=O)NO)C1CCCC1` (single isomer, unassigned; 12j) [listing 2 of 2 here] came in with a Cmax of 0.0707 µg/mL. The compound also returned an AUC in the data set listed under Rattus norvegicus [2] of 0.899 µg·h/mL.
As to `CNC(=O)[C@@H](NC(=O)C(CC(C)C)C(O)C(=O)NO)C(C)(C)C` (single isomer, unassigned), the Activity in data set [1] is 5 nM; in data set [3], 6 nM; in [4] it was 200 nM; in data set [6] it was 20 nM. The inhibition in vivo at 5 mg/kg in the data set on Rattus norvegicus [8] was 50%. Moreover, 2.5 mg/kg produced 11% inhibition in vivo in the data set with Rattus norvegicus [9]. In addition, in the data set with Rattus norvegicus [10], the inhibition in vivo at 10 mg/kg came out at 69%.
For `CNC(=O)[C@@H](NC(=O)C(CC(C)C)C(C(=O)NO)C1CCCCC1)C(C)(C)C` (single isomer, unassigned), the Activity in data set [1] came to 4 nM; in data set [3], 10 nM; in data set [4], 30 nM; in data set [6], 20 nM. The same compound gave a Cmax in [7] of 0.00975 µg/mL. The same compound registered an AUC in the data set listed under Rattus norvegicus [2] of 0.155 µg·h/mL.
Take `CNC(=O)[C@@H](NC(=O)[C@H](CC(C)C)[C@@H](C(=O)NO)C1CCC(C)CC1)C(C)(C)C` (stereo not given in full): the Activity in data set [1] came to 4 nM; in data set [3] it was 9 nM; in [4], 40 nM; in data set [6], 7 nM.
As to `CNC(=O)[C@@H](NC(=O)C(CC(C)C)C(C(=O)NO)C1CCCC1)C(C)(C)C` (single isomer, unassigned), the Activity in data set [1] is 4 nM; in data set [3], 3 nM; in [4], 30 nM; in data set [6], 20 nM. In the data set with Rattus norvegicus [8], this compound displayed an inhibition in vivo at 5 mg/kg of 92%. This compound also displayed an inhibition in vivo at 2.5 mg/kg in the data set with Rattus norvegicus [9] of 94%. Also, in the data set on Rattus norvegicus [10], testing at 10 mg/kg gave an inhibition in vivo of 98%. Moreover, in the data set filed under Rattus norvegicus [2], the AUC worked out at 2.09 µg·h/mL. Further, the highest level in [11] (Cmax) was 0.336 µg/mL.
Consider `CC(C)C[C@@H](C(=O)N[C@H](C(=O)Nc1ccccn1)C(C)(C)C)[C@@H](C(=O)NO)C1CCC(C)CC1` (stereo not given in full), for which the Activity was 5 nM in data set [1], 40 nM in data set [3], 20 nM in data set [4] and 3 nM in data set [6].
The corresponding values for `CNC(=O)[C@@H](NC(=O)[C@H](CC(C)C)[C@@H](C(=O)NO)C1CCSC1)C(C)(C)C` (stereo not given in full) are 5 nM, 5 nM, 40 nM and 4 nM.
As for `CNC(=O)[C@@H](NC(=O)C(CC(C)C)C(C(=O)NO)C1CCC1)C(C)(C)C` (single isomer, unassigned), the Activity came out at 3 nM in [1], 2 nM in data set [3], 50 nM in data set [4] and 20 nM in [6].
Consider `CC(C)CC(C(=O)N[C@H](C(=O)Nc1ccccn1)C(C)(C)C)C(C(=O)NO)C1CCCC1` (single isomer, unassigned; 12m), for which the Activity in data set [1] was found to be 20 nM; in data set [3], 100 nM; in data set [4], 50 nM.
On the same counts, the results for `CC(C)CC(C(=O)N[C@H](C(=O)Nc1ccccn1)C(C)(C)C)C(C(=O)NO)C1CCCCC1` (single isomer, unassigned) are 4 nM, 10 nM and 20 nM.
On to `CNC(=O)[C@@H](NC(=O)[C@H](CC(C)C)[C@@H](C(=O)NO)C1CCN(C)CC1)C(C)(C)C`, for which the Activity in [1] is 30 nM; in [3], 3 nM; in data set [4], 500 nM; in [6], 200 nM.

Usually AUC stands for the area under the concentration-time curve, a measure of exposure. Broadly, the Cmax is the highest concentration seen after dosing. Broadly, the inhibition in vivo is the share of the control response that was lost under treatment.
